Measured values: patent publication US20250289826A1, “PLPRO PROTEIN INHIBITOR, AND PREPARATION METHOD AND APPLICATION THEREOF” (priority 2022, published 2025)

Molecular target: PLpro (Severe acute respiratory syndrome coronavirus 2 (2019-nCoV) (SARS-CoV-2), UniProt P0DTD1)
Experiment: Assay for PLpro inhibitory activity (Ub-AMC fluorescence; single point inhibition test and IC50 determination)
Type: biochemical
Settings: for IC50: fluorescence measured after 15 min of reaction; for inhibition at 1 µM: read-out: inhibition of PLpro (1 μM), 1 μM test compound, 100 nM PLpro, 10 μM Ub-AMC, 37° C. 30 min; for inhibition of PLpro (1 μM): 1 μM test compound, 100 nM PLpro, 10 μM Ub-AMC, 37° C. 30 min

SMILES	IC50	inhibition at 1 µM	inhibition of PLpro (1 μM)
Cc1ccc(N2CC3CCC(C2)N3)cc1C(=O)NC1(c2cccc3cc(F)ccc23)CC1 [Example C1]	0.083 ± 0.00663 µM	97.7%	
Cc1ccc(N2CCNCC2)cc1C(=O)NC1(c2ccc(F)c3ccccc23)CC1 [Example C2]	0.098 ± 0.0121 µM	96.4%	
Cc1ccc(N2CC3CCC(C2)N3)cc1C(=O)NC1(c2ccc(F)c3ccccc23)CC1 [Example C3]	0.0401 ± 0.00301 µM	96.2%	
Cc1ccc(N2CC3CCC(C2)N3)cc1C(=O)NC1(c2cccc(-c3cccs3)c2)CC1 [Example C4]		73.4%	
Cc1ccc(N2CC3CCC(C2)N3C)cc1C(=O)NC1(c2cccc(-c3cccs3)c2)CC1 [Example C5]	0.104 ± 0.00602 µM	79.5%	
Cc1ccc(N2CCNCC2)cc1C(=O)NC1(c2cccc(-c3cccs3)c2)CC1 [Example C6]		56.5%	
Cc1ccc(N2CC3CCC(C2)N3)cc1C(=O)NC1(c2cccc(C(C)(C)C)c2)CC1 [Example C7]		15%	
Cc1ccc(N2CC3CCC(C2)N3C)cc1C(=O)NC1(c2cccc(C(C)(C)C)c2)CC1 [Example C8]		37.2%	
Cc1ccc(N2CC(N(C)C)C2)cc1C(=O)NC1(c2cccc3cc(F)ccc23)CC1 [Example C9]	0.0521 ± 0.00418 µM	98%	
Cc1ccc(N2CC(N(C)C)C2)cc1C(=O)NC1(c2cccc3cc(F)c(F)cc23)CC1 [Example C10]	0.013 ± 0.00276 µM	98.2%	
Cc1ccc(N2CC(N(C)C)C2)cc1C(=O)NC1(c2ccc(Cl)c3ccccc23)CC1 [Example C11]	0.0831 ± 0.0127 µM	96.8%	
COc1ccc(C2(NC(=O)c3cc(N4CC(N(C)C)C4)ccc3C)CC2)c2ccccc12 [Example C12]	0.0186 ± 0.0023 µM	97.8%	
Cc1ccc(N2CC(N(C)C)C2)cc1C(=O)NC1(c2ccc(Br)c3ccccc23)CC1 [Example C13]	0.0798 ± 0.00604 µM	98.5%	
Cc1ccc(N2CC(N(C)C)C2)cc1C(=O)NC1(c2ccc(C)c3ccccc23)CC1 [Example C14]	0.205 ± 0.0136 µM	95.1%	
Cc1ccc(N2CC(N(C)C)C2)cc1C(=O)NC1(c2ccc(OC(F)F)c3ccccc23)CC1 [Example C15]			98.0%
Cc1ccc(N2CC(N(C)C)C2)cc1C(=O)NC1(c2ccc(F)c3ccccc23)CC1 [Example C16]	0.0564 ± 0.00848 µM	89.4%	
Cc1ccc(N2CC(N(C)C)C2)cc1C(=O)NC1(c2cccc3c(Cl)cccc23)CC1 [Example C17]	0.0187 ± 0.00529 µM	98.1%	
Cc1ccc(N2CC(N(C)C)C2)cc1C(=O)NC1(c2cccc3c(F)cccc23)CC1 [Example C18]	0.0178 ± 0.00194 µM	97.6%	
Cc1ccc(N2CC(N(C)C)C2)cc1C(=O)NC1(c2ccccc2)CC1 [Example C19]		4.9%	
Cc1ccc(N2CC(N(C)C)C2)cc1C(=O)NC1(c2csc3ccccc23)CC1 [Example C20]	0.0765 ± 0.00948 µM	91.9%	
Cc1ccc(N2CC(N(C)C)C2)cc1C(=O)NC1(c2cccc3c2CCCC3)CC1 [Example C21]	0.0911 ± 0.00822 µM	90.4%	
Cc1ccc(N2CC(N(C)C)C2)cc1C(=O)NC1(c2ccc(-c3ccccc3)cc2)CC1 [Example C22]		0%	
Cc1ccc(N2CC(N(C)C)C2)cc1C(=O)NC1(c2cccc(-c3ccccc3)c2)CC1 [Example C23]		5.8%	
Cc1ccc(N2CC(N(C)C)C2)cc1C(=O)NC1(c2cccc3occc23)CC1 [Example C24]	0.423 ± 0.0614 µM	82.3%	

SMILES	IC50	inhibition at 1 µM	inhibition of PLpro (1 μM)
Cc1ccc(N2CC(N(C)C)C2)cc1C(=O)NC1(C2=CCCc3ccccc32)CC1 [Example C25]		55%	
Cc1ccc(N2CC(N(C)C)C2)cc1C(=O)NC1(c2cccc3ncccc23)CC1 [Example C27]	0.0976 µM		88.3%
Cc1ccc(N2CC(N(C)C)C2)cc1C(=O)NC1(c2ccnc3ccccc23)CC1 [Example C28]	0.129 µM	89.7%	
Cc1ccc(N2CC(N(C)C)C2)cc1C(=O)NC1(c2ccnc3c(Cl)cccc23)CC1 [Example C29]	0.0449 µM	92.9%	
COc1cccc2c(C3(NC(=O)c4cc(N5CC(N(C)C)C5)ccc4C)CC3)ccnc12 [Example C30]	0.0674 µM	91.5%	
Cc1ccc(N2CCCC(N(C)C)C2)cc1C(=O)NC1(c2ccc(F)c3ccccc23)CC1 (centres unmarked) [Example C31]		49.2%	
Cc1ccc(N2CCCC(N(C)C)C2)cc1C(=O)NC1(c2ccnc3ccccc23)CC1 (centres unmarked) [Example C32]		43.9%	
Cc1ccc(N2CCS(=O)(=O)CC2)cc1C(=O)NC1(c2ccnc3ccccc23)CC1 [Example C33]		41%	
Cc1ccc(NC2CN3CCC2CC3)cc1C(=O)NC1(c2ccnc3ccccc23)CC1 (centres unmarked) [Example C34]		31.1%	
Cc1ccc(N2CCS(=O)(=O)CC2)cc1C(=O)NC1(c2ccc(F)c3ccccc23)CC1 [Example C35]		2.6%	
COC1(C)CN(c2ccc(C)c(C(=O)NC3(c4cccc5ncccc45)CC3)c2)C1 [Example C36]		3.5%	
Cc1ccc(N2CC(C(=O)O)C2)cc1C(=O)NC1(c2cccc3ncccc23)CC1 [Example C37]		12.6%	
COC1(C)CN(c2ccc(C)c(C(=O)NC3(c4ccc(F)c5ncccc45)CC3)c2)C1 [Example C38]		11.7%	
Cc1ccc(NC2CN3CCC2CC3)cc1C(=O)NC1(c2ccc(F)c3ncccc23)CC1 (centres unmarked) [Example C39]		40.8%	
Cc1ccc(N2CCCC(N(C)C)C2)cc1C(=O)NC1(c2ccc(F)c3ncccc23)CC1 (centres unmarked) [Example C40]		55.2%	
Cc1ccc(N2CCS(=O)(=O)CC2)cc1C(=O)NC1(c2ccc(F)c3ncccc23)CC1 [Example C41]		32.8%	
Cc1ccc(N2CCN(C(C)C)CC2)cc1C(=O)NC1(c2ccnc3ccccc23)CC1 [Example C42]		85.2%	
Cc1ccc(N2CCN(C3CC3)CC2)cc1C(=O)NC1(c2ccnc3ccccc23)CC1 [Example C43]		71.9%	
Cc1ccc(N2CCN(C(C)C)CC2)cc1C(=O)NC1(c2ccc(F)c3ncccc23)CC1 [Example C44]		84.9%	
Cc1ccc(N2CCN(C3CC3)CC2)cc1C(=O)NC1(c2ccc(F)c3ncccc23)CC1 [Example C45]		81.4%	
Cc1ccc(N2CCN(C3CC3)CC2)cc1C(=O)NC1(c2cccc3ncccc23)CC1 [Example C46]		77.6%	
Cc1ccc(N2CC(N(C)C)C2)cc1C(=O)NC1(c2ccc3ccccc3c2)CC1 [Example C47]		58%	
Cc1ccc(N2CCN(C(C)C)CC2)cc1C(=O)NC1(c2ccc(F)c3ccccc23)CC1 [Example C48]		84.4%	
Cc1ccc(N2CCN(C3CC3)CC2)cc1C(=O)NC1(c2ccc(F)c3ccccc23)CC1 [Example C49]		58.4%	

SMILES	IC50	inhibition at 1 µM	inhibition of PLpro (1 μM)
Cc1ccc(NC2CCNC2)cc1C(=O)NC1(c2ccc(F)c3ccccc23)CC1 (centres unmarked) [Example C50]		27.8%	
Cc1ccc(NC2CCN(C)CC2)cc1C(=O)NC1(c2ccc(F)c3ncccc23)CC1 [Example C51]		38.4%	
Cc1ccc(NC2CCNC2)cc1C(=O)NC1(c2ccc(F)c3ncccc23)CC1 (centres unmarked) [Example C53]		44.9%	
Cc1ccc(NC2CCNCC2)cc1C(=O)NC1(c2ccc(F)c3ncccc23)CC1 [Example C56]		24.5%	
Cc1ccc(N2CC(N(C)C)C2)cc1C(=O)NC1(c2cccc3ccsc23)CC1 [Example C57]		92%	
Cc1ccc(N2CC(N(C)C)C2)cc1C(=O)NC1(c2ccc(OC(F)(F)F)c3ncccc23)CC1 [Example C58]	0.22 µM	88%	
Cc1ccc(N2CC([N+](C)(C)[O-])C2)cc1C(=O)NC1(c2ccc(F)c3ncccc23)CC1 [Example C59]		0%	
Cc1ccc(N2CC(N(C)C)C2)cc1C(=O)NC1(c2ccc(F)c3[nH]c(=O)ccc23)CC1 [Example C60]		82%	
Cc1ccc(N2CC(N(C)C)C2)cc1C(=O)NC1(c2cc(C(F)(F)F)nc3c(C(F)(F)F)cccc23)CC1 [Example C61]		85%	
Cc1ccc(N2CC(N(C)C)C2)cc1C(=O)NC1(c2ccc(F)c3nc(C(F)F)ccc23)CC1 [Example C62]		92%	
Cc1ccc(N2CCC(O)CC2)cc1C(=O)NC1(c2ccc(F)c3ncccc23)CC1 [Example C63]		30%	
COc1ccc2c(C3(NC(=O)c4cc(N5CC(N(C)C)C5)ccc4C)CC3)ccc(F)c2n1 [Example C64]	0.0506 µM	78%	
Cc1ccc(N2CC(C(C)(C)O)C2)cc1C(=O)NC1(c2ccc(F)c3ncccc23)CC1 [Example C65]		22%	
Cc1ccc(N2CC3C(N)C3C2)cc1C(=O)NC1(c2ccc(F)c3ncccc23)CC1 (centres unmarked) [Example C66]		68%	
Cc1ccc(N2CC(N(C)C)C2)cc1C(=O)NC1(c2ccnc3c(F)cccc23)CC1 [Example C67]	0.0367 µM	97.7%	
Cc1ccc(N2CC(N(C)C)C2)cc1C(=O)NC1(c2ccc(OC(F)F)c3ccccc23)CC1 [Example C68]	0.181 µM	98.5%	
Cc1ccc(N2CC(N(C)C)C2)cc1C(=O)NC1(c2ccc(OC(F)F)c3ncccc23)CC1 [Example C69]	0.0293 µM	98.8%	
Cc1ccc(N2CC(N(C)C)C2)cc1C(=O)NC1(c2ccc(C#N)c3ccccc23)CC1 [Example C70]	0.0406 µM	99.2%	
Cc1ccc(N2CC(N(C)C)C2)cc1C(=O)NC1(c2cccc(Oc3ccccc3)c2)CC1 [Example C71]		25%	
Cc1ccc(N2CC(N(C)C)C2)cc1C(=O)NC1(c2ccc3c(c2)c2ccccc2n3C)CC1 [Example C72]		91%	
Cc1ccc(N2CC(N(C)C)C2)cc1C(=O)NC1(c2cnc(O)c3ccccc23)CC1 [Example C73]	0.172 ± 0.0181 µM	89.3%	
COc1ncc(C2(NC(=O)c3cc(N4CC(N(C)C)C4)ccc3C)CC2)c2ccccc12 [Example C74]	0.217 ± 0.0222 µM	88.6%	
